Source: patent publication US20230312643A1, “PEPTIDE DERIVATIVE WITH COLLAGENASE INHIBITORY ACTIVITY, AND USE THEREOF” (SUNMARINE BIOTECH, priority 2020, published 2023)

How the values were obtained:
[1] = HaCaT cytotoxicity test (MTS cell viability); type: cell-based; conditions: human, HaCaT cells (skin epidermal cells)
Procedure: HaCaT cells, skin epidermal cells (derived from human), were used. The medium was DMEM low (SH30021.01, HyClone™, Logan, UT, USA) medium containing 10% fetal bovine serum (FBS, Lonza, Valais, Switzerland) medium. The cell lines were cultured in an incubator adjusted to 95% humidity, 5% CO2 and 37° C., and at this time, a medium antibiotic (Penicillin streptomycin, Gibco, Calif., USA) was used to suppress contamination or proliferation of microorganisms. When the cells covered the dish about 80%, the cells were washed with phosphated-buffered saline-EDTA (PBS-EDTA), and then the cells attached to the bottom of the dish were detached by treating with 1 ml of 0.05% trypsin EDTA, and subjected to subculture. The medium was exchanged every 48 hours to culture the cells.
Cell viability was measured using MTS (CellTiter 96® AQueous One Solution Cell Proliferation Assay, Promega, USA) reagent. The cells were divided at a concentration of 1×10^4 cells/well in a 96-well plate and then stabilized for 24 hours in an incubator controlled to 95% humidity, 5% CO2 and 37° C. After that, the samples were treated for each concentration (table 1) and cultured for 24 hours in an incubator controlled to 95% humidity, 5% CO2 and 37° C. After the medium was removed, 9 ml of medium (DMEM low, free FBS) was added to 1 ml of the reagent and diluted, and then 100 ul of the diluted solution was treated per well. After the reaction at 37° C. for 60 minutes, absorbance was measured at 490 nm with microplate reader (Molecular Devices, VersaMax ELISA Microplate Reader, USA). Cell viability was represented by absorbance of a sample-treated group compared to a control group not treated with the sample.

collagenase = experiment: Collagenase inhibitory activity (EnzChek Gelatinase/Collagenase Assay Kit, DQ collagen); type: biochemical
Procedure: (§1) Collagenase inhibitory activity was performed by purchasing EnzChek® Gelatinase/Collagenase Assay Kit (250-2000 Assays) reagent from Invitrogen. First, DQ collagen stock solution (1 mg/ml) was prepared by adding 1.0 ml of DDW to 1 mg DQ collagen vial. The 18 ml of DDW was added to 2 ml of 10× reaction buffer, so as to dilute reaction buffer. Then, a collagenase enzyme reagent was prepared, and diluted with reaction buffer to a final concentration of 0.2 U/ml as working solution. Three samples of 50 ? each were prepared in a 96-well plate. The 30 ? of reaction buffer was added to 20 ? of DQ collagen and sample blank, and 30 ? of working solution was added to a sample, which were then left in a light-blocked state at room temperature for about one to two hours, and then fluorescence intensity was measured at excitation wavelength 485 nm and emission wavelength 535 nm using ELISA plate reader (VICTOR X3™, PerkinElmer, US).
As a positive control, copper peptide (Comparative Example 12), which is a representative peptide widely used as a raw material for functional cosmetics, was prepared at the same concentration and used. Copper peptide has excellent skin regeneration ability and thus is used as a raw material to suppress skin aging by promoting wound healing, strengthening skin elasticity, and increasing subcutaneous fat layers.

[2] = HS68 cytotoxicity test (MTS cell viability); type: cell-based; conditions: human, HS68 cells (skin fibroblasts)
Procedure: Skin fibroblast HS68 cells were used. The medium was DMEM high glucose (SH30243.01, HyClone™, Logan, UT, USA) medium containing 10% fetal bovine serum (FBS, Lonza, Valais, Switzerland) medium. The cell lines were cultured in an incubator adjusted to 95% humidity, 5% CO2 and 37° C., and at this time, a medium antibiotic (Penicillin streptomycin, Gibco, Calif., USA) was used to suppress contamination or proliferation of microorganisms.
Cell viability was measured using MTS (CellTiter 96® AQueous One Solution Cell Proliferation Assay, Promega, USA) reagent. The cells were divided at a concentration of 1×10^4 cells/well in a 96-well plate and then stabilized for 24 hours in an incubator controlled to 95% humidity, 5% CO2 and 37° C. After that, the samples were treated for each concentration and cultured for 24 hours in an incubator controlled to 95% j humidity, 5% CO2 and 37° C. After the medium was removed, 9 ml of medium (DMEM high, free FBS) was added to 1 ml of the reagent and diluted, and then 100 ul of the diluted solution was treated per well. After the reaction at 37° C. for 60 minutes, absorbance was measured at 490 nm with microplate reader (Molecular Devices, VersaMax ELISA Microplate Reader, USA). Cell viability was represented by absorbance of a sample-treated group compared to a control group not treated with the sample.

gelatinase = experiment: Gelatinase inhibitory activity (EnzChek Gelatinase/Collagenase Assay Kit, DQ gelatin); type: biochemical
Procedure: Gelatinase is an enzyme which plays a major role in promoting skin aging by more finely degrading collagen fragments digested by MMP-1 with MMP-2, and wrinkle reduction activity was determined by measuring the inhibitory activity of the enzyme.
as §1, with “Gelatinase inhibitory” for “Collagenase inhibitory”, “DQ gelatin” for “DQ collagen”, “a gelatinase” for “a collagenase”, “and” for “and emission wavelength”

NC(=O)C[C@H](NC(=O)CNC(=O)[C@@H]1CCCN1)C(=O)O [PGN, Pro-Gly-Asn, reference compound]
viability at 24 h, 1 µg/mL ([1]; 1 μg/ml): 118 ± 3.1% | viability at 24 h, 10 µg/mL ([1]; 10 μg/ml): 129 ± 2.8% | viability at 24 h, 50 µg/mL ([1]; 50 μg/ml): 125 ± 7.6% | viability at 24 h, 100 µg/mL ([1]; 100 μg/ml): 128 ± 4.1% | Collagenase inhibitory activity (collagenase; 0.05 mg/ml): 1.6 ± 3.3% | Collagenase inhibitory activity (collagenase; 0.1 mg/ml): 4.7 ± 3.9% | Collagenase inhibitory activity (collagenase; 0.5 mg/ml): 11.2 ± 6.2% | Collagenase inhibitory activity (collagenase; 1 mg/ml): 13.1% | collagenase inhibitory activity IC50 (collagenase; FIGS. 5 and 6): 1577 µg/mL | viability at 24 h, 1 µg/mL ([2]; HS68, 1 μg/ml): 104 ± 3.9% | viability at 24 h, 10 µg/mL ([2]; HS68, 10 μg/ml): 117 ± 11.5% | viability at 24 h, 50 µg/mL ([2]; HS68, 50 μg/ml): 128 ± 2.2% | viability at 24 h, 100 µg/mL ([2]; HS68, 100 μg/ml): 130.1 ± 0.1% | Gelatinase inhibitory activity (gelatinase; 0.2 mg/ml): 1.5 ± 5.5% | Gelatinase inhibitory activity (gelatinase; 0.3 mg/ml): 9.8 ± 0.8% | Gelatinase inhibitory activity (gelatinase; 0.4 mg/ml): 63.1 ± 2.1% | Gelatinase inhibitory activity (gelatinase; 0.5 mg/ml): 80.5 ± 1.2%
